Experimental findings from patent US9725490B2, “ERAP1-derived peptide and use thereof” (TOKUSHIMA UNIVERSITY, priority 2011, dated 2017) are described below.

The subject of one test is MCF-7 cells. Description: E2-dependent cell proliferation assay (MTT/CCK-8), MCF-7. Type of test: cell-based, human. How it is done: FIG. 6-1 is a diagram illustrating that ERAP1-peptide treatment suppresses ERα-dependent cell proliferation of breast cancer cell lines. (A) and (B) show the results of MTT assay by which the inhibition effect of the ERAP1-peptide in the E2-dependent cell proliferation was evaluated. MCF-7 cells were treated with the ERAP1-peptide (A, B) the ERAP1-scramble peptide (B) or the ERAP1-mutant peptide (B).
FIG. 7-1 is a diagram illustrating that ERAP1-peptide treatment suppresses ERα-dependent cell proliferation of breast cancer cell lines. […] KPL-3C cells were treated with the ERAP1-peptide, the scramble peptide or the mutant peptide. Then, immediately, the cells were stimulated with 10 nM E2 for 24 hours. […] Then, immediately, the cells were stimulated with 10 nM E2. Then, the ERAP1-peptide was added every day for […]. […] The arrow indicates addition of the ERAP1-peptide.
FIG. 7-3 is a diagram illustrating that ERAP1-peptide treatment suppresses ERα-dependent cell proliferation of breast cancer cell lines. […] MCF-7 cells were treated with 10 μM ERAP1-peptide. Then, immediately, the cells were stimulated with 10 nM E2 (white square). Then, 10 μM ERAP1-peptide was added every day for four days (black square).
FIG. 20 is a diagram illustrating the results of evaluations for the influence of the difference of the sequence on E2-dependent cell proliferation suppression effect. […] Then, immediately, the cells were stimulated with E2 for 24 hours.
MCF-7 cells were suspended in MEM (Invitrogen, Carlsbad, Calif., USA) reinforced with 10% FBS (Nichirei Biosciences, Tokyo, Japan), 1% antibiotic/antimycotic solution (Invitrogen), 0.1 mM NEAA (Tnvitrogen), 1 mM sodium pyruvate and 10 μg/ml insulin (Sigma, St. Louis, Mo., USA). Then, the cell suspension was seeded in a 48-well plate (2×10^4 cells/200 μl), a 24-well plate (1×10^5 cells/1 ml), a 6-well plate (5×10^5 cells/2 ml) or 10 cm dish (2×10^6 cells/10 ml). The cells were maintained at 37° C. in humidified atmosphere containing 5% carbon dioxide. On the next day of the seeding, the culture medium was exchanged with phenol red-free DMEM/F12 (Invitrogen) reinforced with FBS, an antibiotic/antimycotic solution, NEAA, sodium pyruvate and insulin. After 24 hours, the cells were treated with 10 nM 17β estradiol (E2, Sigma). The ERAP-1 peptide was added just before the E2 stimulation in the inhibition test.
Using Cell-Counting Kit-8 (CCK-8, Dojindo, Kumamoto, Japan), the cell proliferation assay was performed. […] Then, the absorbance at 450 nm was measured and the number of living cells in each well was calculated.
The cell proliferation assay was evaluated using Cell-Counting Kit-8 (CCK-8, Dojindo, Kumamoto, Japan). […] Then, 100 μl from each well was moved to a 96-well plate, and the absorbance at 450 nm was measured with a microplate reader.

Test [1] has as its system ERα binding to Her2, EGFR, IGF1-Rβ, PI3K; AKt and MAPK routes. Description: Non-genomic activation route, immunoblotting, BT474. Type of test: cell-based, human. Here is the method:
FIG. 10-2 is a diagram illustrating that the ERAP1-peptide regulates E2-induced non-genomic activation route via IGF-1Rβ and Shc. […] BT-474 cells were treated with the ERAP1-peptide and/or E2 for 24 hours. Then, the cytoplasm fraction was immunoprecipitated with anti-ERα antibody.
FIG. 10-3 is a diagram illustrating that the ERAP1-peptide regulates E2-induced non-genomic activation route via IGF-1Rβ and Shc. […] BT-474 cells were treated with the ERAP1-peptide. Then, the phosphorylation levels of Akt and MAPK were evaluated by Western blotting. […] MCF-7 cells were treated with the ERAP1-peptide or the ERAP1-scramble peptide. The relative phosphorylation levels were quantified by densitometry analysis, and the ratio to the value at 0 hour in the untreated cells was calculated.

As for `CSCC[C@H](NC(=O)[C@H](CCC(N)=O)NC(=O)[C@H](CCCNC(=N)N)NC(=O)[C@H](CCCNC(=N)N)NC(=O)[C@H](CCCNC(=N)N)NC(=O)[C@H](CCCNC(=N)N)NC(=O)[C@H](CCCNC(=N)N)NC(=O)[C@H](CCCNC(=N)N)NC(=O)[C@H](CCCNC(=N)N)NC(=O)[C@H](CCCNC(=N)N)NC(=O)[C@H](CCCNC(=N)N)NC(=O)[C@H](CCCNC(=N)N)NC(=O)[C@@H](N)CCCNC(=N)N)C(=O)N[C@@H](CC(C)C)C(=O)N[C@@H](CO)C(=O)N[C@@H](CC(=O)O)C(=O)N[C@@H](CC(C)C)C(=O)N[C@H](C(=O)N[C@@H](CC(C)C)C(=O)N[C@@H](CCC(N)=O)C(=O)N[C@@H](CC(C)C)C(=O)N[C@@H](CCCNC(=N)N)C(=O)N[C@@H](CCC(N)=O)C(=O)N[C@@H](CCCNC(=N)N)C(=O)O)[C@@H](C)O` [ERAP1-peptide], the E2-dependent cell proliferation result in the test on MCF-7 cells (10 nM E2, up to 24 hours) was “dose-dependently suppressed the E2-dependent cell proliferation”. The “proliferation of the E2-dependent breast cancer cells, repeated administration” value in the test with MCF-7 cells (5 μM and 10 μM, every 24 hours for four days) was “completely suppressed”. Moreover, the “duration of E2-dependent proliferation suppression effect” value in the test on MCF-7 cells (10 μM single addition) is “complete E2-dependent proliferation suppression effect was recognized up to 24 hours”. In test [1], the “bindings of ERα to Her2, EGFR, IGF1-Rβ and PI3K” value was “all of the bindings of ERα to Her2, EGFR, IGF1-Rβ and PI3K were inhibited”.
